# Results as given in ChEMBL document CHEMBL4651402, “Screening of ~5500 FDA-approved drugs and clinical candidates for anti-SARS-CoV-2 activity” (2021).
# Tested on: not listed separately
# Assay: in vitro
# Settings: chlorocebus sabaeus, Vero E6 (Vero C1008) cells, CC50
row,Compound,CC50 at 48 h [µM]
1,Cc1nc2ccccn2c(=O)c1CCN1CCC(=C(c2ccc(F)cc2)c2ccc(F)cc2)CC1 [SEGANSERIN],10.2
2,Cc1cccc(C)c1OCC(=O)N[C@@H](Cc1ccccc1)[C@@H](O)C[C@H](Cc1ccccc1)NC(=O)[C@H](C(C)C)N1CCCNC1=O [LOPINAVIR],~33.7
3,Cc1ccc(-c2nc3c(nc2-c2ccc(C)cc2)N(CCCCCCC(=O)O)CCC3)cc1,50.1
4,Cc1cc(-c2ccc(/N=N/c3ccc4c(S(=O)(=O)O)cc(S(=O)(=O)O)c(N)c4c3O)c(C)c2)ccc1/N=N/c1ccc2c(S(=O)(=O)O)cc(S(=O)(=O)O)c(N)c2c1O [EVANS BLUE FREE ACID],18
5,Cc1c(-c2ccc(O)cc2)n(Cc2ccc(OCCN3CCCCC3)cc2)c2ccc(O)cc12 [PIPENDOXIFENE],4.62
6,Cc1ccc(C(=O)N(CCCN)[C@@H](c2oc3cc(Cl)ccc3c(=O)c2Cc2ccccc2)C(C)C)cc1 [SB-743921],2.63
7,Cc1nc(Nc2ccc(F)cc2)nc(N2CCc3ccccc3C2C)c1C (centres undefined) [REVAPRAZAN],11.5
8,Cn1cncc1[C@@](N)(c1ccc(Cl)cc1)c1ccc2c(c1)c(-c1cccc(Cl)c1)cc(=O)n2C [TIPIFARNIB],13.3
9,O=c1[nH]c2ccccc2n1CCCN1CCN(C(c2ccccc2)c2ccccc2)CC1 [OXATOMIDE],~12.6
10,CN1CCC[C@@H](CN2c3ccccc3Sc3ccccc32)C1,11.8
11,CCCOc1ccc(C(=O)CCN2CCCCC2)cc1 [PROPIPOCAINE],31.6
12,CC(C)(C)NC(=O)[C@@H]1C[C@@H]2CCCC[C@@H]2CN1C[C@@H](O)[C@H](Cc1ccccc1)NC(=O)[C@H](CC(N)=O)NC(=O)c1ccc2ccccc2n1,18.2
13,CC1=C(/C=C/C(C)=C/C=C/C(C)=C/C(=O)Nc2ccc(O)cc2)C(C)(C)CCC1 [FENRETINIDE],5.01
14,OC(CCCN1CCc2c(c3cc(F)ccc3n2-c2ccc(F)cc2)C1)c1ccc(F)cc1 (centres undefined) [FLUTROLINE],6.92

# Same assay, conditions: chlorocebus sabaeus, Vero E6 (Vero C1008) cells, pCC50
row,Compound,CC50 at 48 h [µM]
1,Cc1nc2ccccn2c(=O)c1CCN1CCC(=C(c2ccc(F)cc2)c2ccc(F)cc2)CC1 [SEGANSERIN],10.2
2,Cc1cccc(C)c1OCC(=O)N[C@@H](Cc1ccccc1)[C@@H](O)C[C@H](Cc1ccccc1)NC(=O)[C@H](C(C)C)N1CCCNC1=O [LOPINAVIR],~33.9
3,Cc1ccc(-c2nc3c(nc2-c2ccc(C)cc2)N(CCCCCCC(=O)O)CCC3)cc1,50.1
4,Cc1cc(-c2ccc(/N=N/c3ccc4c(S(=O)(=O)O)cc(S(=O)(=O)O)c(N)c4c3O)c(C)c2)ccc1/N=N/c1ccc2c(S(=O)(=O)O)cc(S(=O)(=O)O)c(N)c2c1O [EVANS BLUE FREE ACID],17.8
5,Cc1c(-c2ccc(O)cc2)n(Cc2ccc(OCCN3CCCCC3)cc2)c2ccc(O)cc12 [PIPENDOXIFENE],4.57
6,Cc1ccc(C(=O)N(CCCN)[C@@H](c2oc3cc(Cl)ccc3c(=O)c2Cc2ccccc2)C(C)C)cc1 [SB-743921],2.63
7,Cc1nc(Nc2ccc(F)cc2)nc(N2CCc3ccccc3C2C)c1C (centres undefined) [REVAPRAZAN],11.5
8,Cn1cncc1[C@@](N)(c1ccc(Cl)cc1)c1ccc2c(c1)c(-c1cccc(Cl)c1)cc(=O)n2C [TIPIFARNIB],13.2
9,O=c1[nH]c2ccccc2n1CCCN1CCN(C(c2ccccc2)c2ccccc2)CC1 [OXATOMIDE],~12.6
10,CN1CCC[C@@H](CN2c3ccccc3Sc3ccccc32)C1,11.7
11,CCCOc1ccc(C(=O)CCN2CCCCC2)cc1 [PROPIPOCAINE],31.6
12,CC(C)(C)NC(=O)[C@@H]1C[C@@H]2CCCC[C@@H]2CN1C[C@@H](O)[C@H](Cc1ccccc1)NC(=O)[C@H](CC(N)=O)NC(=O)c1ccc2ccccc2n1,18.2
13,CC1=C(/C=C/C(C)=C/C=C/C(C)=C/C(=O)Nc2ccc(O)cc2)C(C)(C)CCC1 [FENRETINIDE],5.01
14,OC(CCCN1CCc2c(c3cc(F)ccc3n2-c2ccc(F)cc2)C1)c1ccc(F)cc1 (centres undefined) [FLUTROLINE],6.92

# Tested on: SARS-CoV-2
# Assay: microbe, parasite or virus in culture
# Assay type: functional, organism-based, Chlorocebus sabaeus, Vero C1008
# Settings: Severe acute respiratory syndrome coronavirus 2, Vero C1008, 48 h; read-out: IC50
row,Compound,IC50 [µM]
1,Cc1nc2ccccn2c(=O)c1CCN1CCC(=C(c2ccc(F)cc2)c2ccc(F)cc2)CC1 [SEGANSERIN],> 100
2,Cc1cccc(C)c1OCC(=O)N[C@@H](Cc1ccccc1)[C@@H](O)C[C@H](Cc1ccccc1)NC(=O)[C@H](C(C)C)N1CCCNC1=O [LOPINAVIR],~15.7
3,Cc1ccc(-c2nc3c(nc2-c2ccc(C)cc2)N(CCCCCCC(=O)O)CCC3)cc1,~16.6
4,Cc1cc(-c2ccc(/N=N/c3ccc4c(S(=O)(=O)O)cc(S(=O)(=O)O)c(N)c4c3O)c(C)c2)ccc1/N=N/c1ccc2c(S(=O)(=O)O)cc(S(=O)(=O)O)c(N)c2c1O [EVANS BLUE FREE ACID],> 100
5,Cc1c(-c2ccc(O)cc2)n(Cc2ccc(OCCN3CCCCC3)cc2)c2ccc(O)cc12 [PIPENDOXIFENE],> 6.31
6,Cc1ccc(C(=O)N(CCCN)[C@@H](c2oc3cc(Cl)ccc3c(=O)c2Cc2ccccc2)C(C)C)cc1 [SB-743921],> 50.1
7,Cc1nc(Nc2ccc(F)cc2)nc(N2CCc3ccccc3C2C)c1C (centres undefined) [REVAPRAZAN],10.5
8,Cn1cncc1[C@@](N)(c1ccc(Cl)cc1)c1ccc2c(c1)c(-c1cccc(Cl)c1)cc(=O)n2C [TIPIFARNIB],> 100
9,O=c1[nH]c2ccccc2n1CCCN1CCN(C(c2ccccc2)c2ccccc2)CC1 [OXATOMIDE],> 100
10,CN1CCC[C@@H](CN2c3ccccc3Sc3ccccc32)C1,> 100
11,CCCOc1ccc(C(=O)CCN2CCCCC2)cc1 [PROPIPOCAINE],> 100
12,CC(C)(C)NC(=O)[C@@H]1C[C@@H]2CCCC[C@@H]2CN1C[C@@H](O)[C@H](Cc1ccccc1)NC(=O)[C@H](CC(N)=O)NC(=O)c1ccc2ccccc2n1,> 100
13,CC1=C(/C=C/C(C)=C/C=C/C(C)=C/C(=O)Nc2ccc(O)cc2)C(C)(C)CCC1 [FENRETINIDE],2.95
14,OC(CCCN1CCc2c(c3cc(F)ccc3n2-c2ccc(F)cc2)C1)c1ccc(F)cc1 (centres undefined) [FLUTROLINE],> 100

# Same assay, conditions: Severe acute respiratory syndrome coronavirus 2, Vero C1008, 48 h; read-out: pIC50 (converted)
row,Compound,IC50 [µM]
1,Cc1nc2ccccn2c(=O)c1CCN1CCC(=C(c2ccc(F)cc2)c2ccc(F)cc2)CC1 [SEGANSERIN],> 100
2,Cc1cccc(C)c1OCC(=O)N[C@@H](Cc1ccccc1)[C@@H](O)C[C@H](Cc1ccccc1)NC(=O)[C@H](C(C)C)N1CCCNC1=O [LOPINAVIR],~15.5
3,Cc1ccc(-c2nc3c(nc2-c2ccc(C)cc2)N(CCCCCCC(=O)O)CCC3)cc1,~16.6
4,Cc1cc(-c2ccc(/N=N/c3ccc4c(S(=O)(=O)O)cc(S(=O)(=O)O)c(N)c4c3O)c(C)c2)ccc1/N=N/c1ccc2c(S(=O)(=O)O)cc(S(=O)(=O)O)c(N)c2c1O [EVANS BLUE FREE ACID],> 100
5,Cc1c(-c2ccc(O)cc2)n(Cc2ccc(OCCN3CCCCC3)cc2)c2ccc(O)cc12 [PIPENDOXIFENE],> 6.31
6,Cc1ccc(C(=O)N(CCCN)[C@@H](c2oc3cc(Cl)ccc3c(=O)c2Cc2ccccc2)C(C)C)cc1 [SB-743921],> 50.1
7,Cc1nc(Nc2ccc(F)cc2)nc(N2CCc3ccccc3C2C)c1C (centres undefined) [REVAPRAZAN],10.5
8,Cn1cncc1[C@@](N)(c1ccc(Cl)cc1)c1ccc2c(c1)c(-c1cccc(Cl)c1)cc(=O)n2C [TIPIFARNIB],> 100
9,O=c1[nH]c2ccccc2n1CCCN1CCN(C(c2ccccc2)c2ccccc2)CC1 [OXATOMIDE],> 100
10,CN1CCC[C@@H](CN2c3ccccc3Sc3ccccc32)C1,> 100
11,CCCOc1ccc(C(=O)CCN2CCCCC2)cc1 [PROPIPOCAINE],> 100
12,CC(C)(C)NC(=O)[C@@H]1C[C@@H]2CCCC[C@@H]2CN1C[C@@H](O)[C@H](Cc1ccccc1)NC(=O)[C@H](CC(N)=O)NC(=O)c1ccc2ccccc2n1,> 100
13,CC1=C(/C=C/C(C)=C/C=C/C(C)=C/C(=O)Nc2ccc(O)cc2)C(C)(C)CCC1 [FENRETINIDE],2.95
14,OC(CCCN1CCc2c(c3cc(F)ccc3n2-c2ccc(F)cc2)C1)c1ccc(F)cc1 (centres undefined) [FLUTROLINE],> 100

# Tested on: SARS-CoV-2
# Assay: microbe, parasite or virus in culture
# Settings: Severe acute respiratory syndrome coronavirus 2, Vero C1008, 48 h
row,Compound,IC50 [µM]
1,Cc1nc2ccccn2c(=O)c1CCN1CCC(=C(c2ccc(F)cc2)c2ccc(F)cc2)CC1 [SEGANSERIN],7.59
2,Cc1cccc(C)c1OCC(=O)N[C@@H](Cc1ccccc1)[C@@H](O)C[C@H](Cc1ccccc1)NC(=O)[C@H](C(C)C)N1CCCNC1=O [LOPINAVIR],22.9
3,Cc1ccc(-c2nc3c(nc2-c2ccc(C)cc2)N(CCCCCCC(=O)O)CCC3)cc1,17.4
4,Cc1cc(-c2ccc(/N=N/c3ccc4c(S(=O)(=O)O)cc(S(=O)(=O)O)c(N)c4c3O)c(C)c2)ccc1/N=N/c1ccc2c(S(=O)(=O)O)cc(S(=O)(=O)O)c(N)c2c1O [EVANS BLUE FREE ACID],> 100
5,Cc1c(-c2ccc(O)cc2)n(Cc2ccc(OCCN3CCCCC3)cc2)c2ccc(O)cc12 [PIPENDOXIFENE],3.63
6,Cc1ccc(C(=O)N(CCCN)[C@@H](c2oc3cc(Cl)ccc3c(=O)c2Cc2ccccc2)C(C)C)cc1 [SB-743921],> 50.1
7,Cc1nc(Nc2ccc(F)cc2)nc(N2CCc3ccccc3C2C)c1C (centres undefined) [REVAPRAZAN],> 100
8,Cn1cncc1[C@@](N)(c1ccc(Cl)cc1)c1ccc2c(c1)c(-c1cccc(Cl)c1)cc(=O)n2C [TIPIFARNIB],> 100
9,O=c1[nH]c2ccccc2n1CCCN1CCN(C(c2ccccc2)c2ccccc2)CC1 [OXATOMIDE],> 100
10,CN1CCC[C@@H](CN2c3ccccc3Sc3ccccc32)C1,> 20
11,CCCOc1ccc(C(=O)CCN2CCCCC2)cc1 [PROPIPOCAINE],> 100
12,CC(C)(C)NC(=O)[C@@H]1C[C@@H]2CCCC[C@@H]2CN1C[C@@H](O)[C@H](Cc1ccccc1)NC(=O)[C@H](CC(N)=O)NC(=O)c1ccc2ccccc2n1,> 100
13,CC1=C(/C=C/C(C)=C/C=C/C(C)=C/C(=O)Nc2ccc(O)cc2)C(C)(C)CCC1 [FENRETINIDE],> 100
14,OC(CCCN1CCc2c(c3cc(F)ccc3n2-c2ccc(F)cc2)C1)c1ccc(F)cc1 (centres undefined) [FLUTROLINE],4.68

# Same assay, conditions: Severe acute respiratory syndrome coronavirus 2, Vero C1008, 48 h, read-out: pIC50 (converted)
row,Compound,IC50 [µM]
1,Cc1nc2ccccn2c(=O)c1CCN1CCC(=C(c2ccc(F)cc2)c2ccc(F)cc2)CC1 [SEGANSERIN],7.59
2,Cc1cccc(C)c1OCC(=O)N[C@@H](Cc1ccccc1)[C@@H](O)C[C@H](Cc1ccccc1)NC(=O)[C@H](C(C)C)N1CCCNC1=O [LOPINAVIR],22.9
3,Cc1ccc(-c2nc3c(nc2-c2ccc(C)cc2)N(CCCCCCC(=O)O)CCC3)cc1,17.4
4,Cc1cc(-c2ccc(/N=N/c3ccc4c(S(=O)(=O)O)cc(S(=O)(=O)O)c(N)c4c3O)c(C)c2)ccc1/N=N/c1ccc2c(S(=O)(=O)O)cc(S(=O)(=O)O)c(N)c2c1O [EVANS BLUE FREE ACID],> 100
5,Cc1c(-c2ccc(O)cc2)n(Cc2ccc(OCCN3CCCCC3)cc2)c2ccc(O)cc12 [PIPENDOXIFENE],3.63
6,Cc1ccc(C(=O)N(CCCN)[C@@H](c2oc3cc(Cl)ccc3c(=O)c2Cc2ccccc2)C(C)C)cc1 [SB-743921],> 50.1
7,Cc1nc(Nc2ccc(F)cc2)nc(N2CCc3ccccc3C2C)c1C (centres undefined) [REVAPRAZAN],> 100
8,Cn1cncc1[C@@](N)(c1ccc(Cl)cc1)c1ccc2c(c1)c(-c1cccc(Cl)c1)cc(=O)n2C [TIPIFARNIB],> 100
9,O=c1[nH]c2ccccc2n1CCCN1CCN(C(c2ccccc2)c2ccccc2)CC1 [OXATOMIDE],> 100
10,CN1CCC[C@@H](CN2c3ccccc3Sc3ccccc32)C1,> 20
11,CCCOc1ccc(C(=O)CCN2CCCCC2)cc1 [PROPIPOCAINE],> 100
12,CC(C)(C)NC(=O)[C@@H]1C[C@@H]2CCCC[C@@H]2CN1C[C@@H](O)[C@H](Cc1ccccc1)NC(=O)[C@H](CC(N)=O)NC(=O)c1ccc2ccccc2n1,> 100
13,CC1=C(/C=C/C(C)=C/C=C/C(C)=C/C(=O)Nc2ccc(O)cc2)C(C)(C)CCC1 [FENRETINIDE],> 100
14,OC(CCCN1CCc2c(c3cc(F)ccc3n2-c2ccc(F)cc2)C1)c1ccc(F)cc1 (centres undefined) [FLUTROLINE],4.68
